Experiment [1] has as its target T1, Orexin/Hypocretin receptor type 1 (Homo sapiens, UniProt O43613).
T1 sequence (O43613 whole entry): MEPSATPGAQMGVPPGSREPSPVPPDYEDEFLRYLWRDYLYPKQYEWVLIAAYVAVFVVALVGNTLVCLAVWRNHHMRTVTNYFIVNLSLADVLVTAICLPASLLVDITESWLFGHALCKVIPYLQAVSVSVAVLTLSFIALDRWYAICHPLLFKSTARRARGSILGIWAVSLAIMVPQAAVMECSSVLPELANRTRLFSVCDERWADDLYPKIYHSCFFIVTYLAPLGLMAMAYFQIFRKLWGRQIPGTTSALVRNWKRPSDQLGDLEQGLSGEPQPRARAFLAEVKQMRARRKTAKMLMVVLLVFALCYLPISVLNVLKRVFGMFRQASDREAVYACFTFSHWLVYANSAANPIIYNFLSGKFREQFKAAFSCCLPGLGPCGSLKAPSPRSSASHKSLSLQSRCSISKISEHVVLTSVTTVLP
In words: Antagonist activity at human OX1 receptor expressed in CHOK1 cells assessed as inhibition of orexin-A-induced calcium mobilization preincubated for 15 mins followed by orexin-A addition and measured by FURA 2-AM dye based fluorescence assay. Type of experiment: functional, cell-based. (Calcium flux is commonly read through the fluorescence of an indicator in the cells.)

A further experiment has as its target T2, Orexin receptor type 2 (Homo sapiens, UniProt O43614).
T2 sequence (O43614 whole entry): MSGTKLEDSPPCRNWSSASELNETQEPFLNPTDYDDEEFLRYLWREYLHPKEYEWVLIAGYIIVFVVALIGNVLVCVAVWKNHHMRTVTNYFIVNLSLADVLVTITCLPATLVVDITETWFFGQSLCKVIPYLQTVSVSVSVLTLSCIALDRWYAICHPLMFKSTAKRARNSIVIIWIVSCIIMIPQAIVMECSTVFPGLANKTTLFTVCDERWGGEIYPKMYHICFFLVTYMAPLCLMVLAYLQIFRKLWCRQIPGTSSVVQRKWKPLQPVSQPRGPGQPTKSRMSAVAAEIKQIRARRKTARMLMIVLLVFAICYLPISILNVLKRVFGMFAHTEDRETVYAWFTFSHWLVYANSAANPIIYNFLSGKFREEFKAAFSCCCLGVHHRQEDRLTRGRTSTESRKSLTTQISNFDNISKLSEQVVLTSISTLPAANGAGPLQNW
Briefly: Antagonist activity at human OX2 receptor expressed in CHOK1 cells assessed as inhibition of orexin-A-induced calcium mobilization preincubated for 15 mins followed by orexin-A addition and measured by FURA 2-AM dye based fluorescence assay. Type of experiment: functional, cell-based.

For orientation: Ki means a measure of affinity in units of concentration, obtained from inhibition or displacement.

Structures are written as SMILES. A value given as a limit tells only on which side of the number the result lay.

Turning to `CN(C(=O)/C=C/c1ccoc1)[C@@H]1CC[C@@]2(O)[C@H]3Cc4ccccc4[C@@]2(CCN3S(=O)(=O)c2ccccc2)C1`, the Ki in experiment [1] is 461 nM; on Orexin receptor type 2 it was greater than 10 µM.

`COc1ccc2c(c1)[C@]13CCN(S(=O)(=O)c4ccccc4)[C@H](C2)C1=CC[C@H](N(C)C(=O)/C=C/c1ccoc1)C3`: the Ki was 502 nM in experiment [1] and greater than 10 µM on Orexin receptor type 2.

In the case of `COc1ccc2c(c1)[C@]13CCN(S(=O)(=O)c4ccccc4)[C@H](C2)C1=CC[C@@H](N(C)C(=O)/C=C/c1ccoc1)C3`, the figures for the inhibition constant Ki (in experiment [1]; on Orexin receptor type 2) were 5.89 nM and greater than 10 µM, respectively.

`COc1ccc2c(c1)[C@]13CCN(S(=O)(=O)c4ccccc4)[C@H](C2)[C@]1(O)CC[C@@H](N(C)C(=O)/C=C/c1ccoc1)C3`: the Ki on Orexin receptor type 2 was greater than 10 µM.

For `COc1ccc2c3c1O[C@H]1[C@H](N(C)C(=O)/C=C/c4ccoc4)CC[C@@]4(O)[C@@H](C2)N(S(=O)(=O)c2ccccc2)CC[C@]314`, the Ki on Orexin receptor type 2 is greater than 10 µM.

In the case of `CN(C(=O)/C=C/c1ccoc1)[C@H]1CC[C@@]2(O)[C@H]3CC4=C(CCCC4)[C@@]2(CCN3S(=O)(=O)c2ccccc2)C1`, the Ki in experiment [1] stood at 7.45 nM; at Orexin receptor type 2 it was 0.0919 µM.

With `COc1ccc2c(c1)[C@]13CCN(S(=O)(=O)c4ccccc4)[C@H](C2)[C@@H]1CC[C@H](N(C)C(=O)/C=C/c1ccoc1)C3`, the Ki came out at 4.34 nM in experiment [1] and 0.0799 µM at Orexin receptor type 2.

With `CN(C(=O)/C=C/c1ccoc1)[C@@H]1CC[C@@]2(O)[C@H]3CC4=C(CCCC4)[C@@]2(CCN3S(=O)(=O)c2ccccc2)C1`, the results for the Ki (in experiment [1]; at Orexin receptor type 2) were greater than 10000 nM and greater than 10 µM, respectively.

`COc1ccc2c(c1)[C@]13CCN(S(=O)(=O)c4ccccc4)[C@H](C2)[C@@H]1CC[C@@H](N(C)C(=O)/C=C/c1ccoc1)C3`: the Ki in experiment [1] is 5.51 nM; on Orexin receptor type 2 it was greater than 10 µM.

For `CN(C(=O)/C=C/c1ccoc1)[C@H]1CC[C@@]2(O)[C@H]3Cc4ccccc4[C@@]2(CCN3S(=O)(=O)c2ccccc2)C1`, the values for the Ki (in experiment [1]; on Orexin receptor type 2) were 9.35 nM and 0.173 µM, respectively.

The values are drawn from ChEMBL document CHEMBL4400571, “Essential structure of orexin 1 receptor antagonist YNT-707, part III: Role of the 14-hydroxy and the 3-methoxy groups in antagonistic activity toward the orexin 1 receptor in YNT-707 derivatives lacking the 4,5-epoxy ring” (Bioorg Med Chem, 2019).
